Experimental findings from US6426229B1, “Chelating agent and detergent comprising the same” (Mitsubishi Rayon Co., Ltd., priority 1995, dated 2002) are described below.

This data set in a line: Storage of aqueous solution or slurry for 60 days: HPLC analysis of components and appearance. In kind it is physicochemical. Particulars: keeping temperature 50° C. How it is done: (§1) This aqueous solution was kept at 50° C. for 60 days, and, then, the components were analyzed by HPLC and, simultaneously, the appearance of the solution was observed.
as §1
This aqueous solution was kept at 50° C. for 60 days. Then, the components were analyzed by HPLC and, simultaneously, the appearance of the solution was observed.

Take `O=C([O-])CCN[C@@H](CC(=O)[O-])C(=O)[O-].[Na+].[Na+].[Na+]` [compound 31, trisodium salt of (S)-aspartic acid-N-monopropionic acid]: the “Appearance after kept for 60 days” value is listed as “Brown aqueous solution” and the “Content of the compound of the formula [I] in aqueous solution after kept for 60 days” value (“Content of the compound of the formula” for short) was determined as 33.2 wt. %.
The like results for `O=C([O-])CC(NCCNC(CC(=O)[O-])C(=O)[O-])C(=O)[O-].[Na+].[Na+].[Na+].[Na+]` (stereo not shown) [Example 112, tetrasodium ethylenediamine-N,N′-disuccinate] were, in that order, “Light yellow transparent aqueous solution” and 36.4 wt. %.
In the same order, the values of `C[C@@H](C(=O)[O-])N(CC(=O)[O-])CC(=O)[O-].[Na+].[Na+].[Na+]` [compound 32, trisodium salt of (S)-α-alanine-N,N-diacetic acid] are “Brown aqueous solution” and 31.8 wt. %.
As to `O=C([O-])C[C@@H](C(=O)[O-])N(CC(=O)[O-])CC(=O)[O-].[Na+].[Na+].[Na+].[Na+]` [compound 30, tetrasodium salt of (S)-aspartic acid-N,N-diacetic acid], the “Appearance after kept for 60 days” value is listed as “Brown aqueous solution” and the “Content of the compound of the formula” value is 31.8 wt. %.
In the same order, the values of `O=C([O-])C[C@@H](C(=O)[O-])N(CC(=O)[O-])CC(=O)[O-].[Na+].[Na+].[Na+].[Na+]` [Example 86, tetrasodium salt of (S)-aspartic acid-N,N-diacetic acid] are “Light yellow transparent aqueous solution” and 36.4 wt. %.
In the same order, the values of `O=C([O-])CN[C@@H](CC(=O)[O-])C(=O)[O-].[Na+].[Na+].[Na+]` [compound 33, trisodium salt of (S)-aspartic acid-N-monoacetic acid] are “Brown slurry” and 30.5 wt. %.
As for `O=C([O-])CN(CCS(=O)(=O)[O-])CC(=O)[O-].[Na+].[Na+].[Na+]` [compound 37, trisodium salt of taurine-N,N-diacetic acid], the “Appearance after kept for 60 days” value was “Brown aqueous solution” and the “Content of the compound of the formula” value stood at 30.4 wt. %.
The like results for `O=C([O-])C[C@H](NCCN[C@@H](CC(=O)[O-])C(=O)[O-])C(=O)[O-].[Na+].[Na+].[Na+].[Na+]` [compound 44, tetrasodium (S,S)-ethylenediamine-N,N′-disuccinate] were, in that order, “Light yellow transparent aqueous solution” and 34.4 wt. %.
In the same order, the values of `O=C([O-])CN(CCS(=O)(=O)[O-])CC(=O)[O-].[Na+].[Na+].[Na+]` [Example 100, trisodium salt of taurine-N,N-diacetic acid] are “Light yellow transparent aqueous solution” and 34.7 wt. %.
In the same order, the values of `O=C([O-])CC(NCCCNC(CC(=O)[O-])C(=O)[O-])C(=O)[O-].[Cu+2].[Na+].[Na+]` (stereo not shown) [Example 126, copper disodium 1,3-propanediamine-N,N′-disuccinate] are “Dark blue transparent aqueous solution” and 36.4 wt. %.
As to `O=C([O-])C[C@H](NCCN[C@@H](CC(=O)[O-])C(=O)[O-])C(=O)[O-].[Fe+3].[NH4+]` [Example 125, iron ammonium (S,S)-ethylenediamine-N,N′-disuccinate], the “Appearance after kept for 60 days” value is given as “Reddish brown aqueous solution” and the “Content of the compound of the formula” value came to 36.5 wt. %.
